# According to publication PMC8360061, “Search for the Active Ingredients from a 2‐Aminothiazole DMSO Stock Solution with Antimalarial Activity” (Chemmedchem, 2021):
# “Also recorded” adds a separate entry of the source.
# What was measured:
# [1] = Decomposition study of stock solutions (HRMS, NMR); type: physicochemical
# Experimental: Firstly, we performed a temperature‐dependent decomposition study of compound 1 at 10 mM concentration in DMSO at room temperature (RT), +4 °C and −20 °C (SI, Section 2.3). After seven days, 64 % of the sample stored at RT had decomposed (SI, Table S1). Besides visual inspection of the colour changes of the test sample (see Table 2), the decomposition was monitored by HRMS and NMR spectroscopy. […] Furthermore, all three samples were tested for their inhibitory activity against PfIspE after the incubation period. […] This fact correlated with the degree of chemical transformation of compound 1 (Table S1). In the IspE assay, the activity of the target enzyme is coupled to the oxidation of NADH (which can be followed spectrophotometrically at 340 nm) via a cascade of the auxiliary enzymes pyruvate kinase and lactate dehydrogenase (PK/LDH).[10] Therefore, we next confirmed, whether the effects observed in the IspE assay are due to inhibition of the target enzyme or of the auxiliary enzymes. Three samples of compound 1 were tested in PK/LDH assay (Table 2).
# Secondly, we analysed if spontaneous chemical transformation of compound 1 may depend on the solvent used for the preparation of its stock solutions. We incubated 10 mM stock preparations of compound 1 in DMSO, acetonitrile (ACN) and methanol (MeOH) at RT. Aliquots were taken during 16 days of incubation and tested against the enzyme PfIspE (Table 3). […] For further decomposition incubation of compound 1, only DMSO was used as solvent.
# 2.3 Temperature-Dependent Study
# Compound 1 was dissolved in DMSO to afford 10 mM stock solution, in the scale of 3.65 mg in 1 mL. Three aliquots were prepared and one each was stored inside a light -protecting box at different temperatures: room temperature (RT), +4 °C and –20 °C. Samples were only taken to RT for the minimum time required for sampling. Samples were further d iluted with acetonitrile to 10 µM (1:1000) for HRMS analysis. For calibration, a fresh stock solution of the compound 1 was prepared shortly before the analysis. The concentration range used for the calibration was from 10 µM to 20 nM, including 10 samples with 1:1 dilutions starting from the highest concentration (Appendix I). In all of the calibration points and samples, diphenhydramine ( m/z: 256.16907 [M+H]+) was included as an internal standard at the concentration of 500 nM. The results were analysed using Thermo Xcalibur Quan Browser. Similarly, three NMR samples of compound 1 were prepared in DMSO-d6 and each stored at different temperatures; RT, +4 °C and –20 °C, (Figure S8).
# Table S1. Summary of the decomposition of compound 1 at different temperatures with the corresponding enzymatic activities measured after three months.
# The Percentage of Compound 1 Left After Degradation after 3 months of decomposition[b] Temperature Day 7 1 month 2 months PfIspE IC50 EcIspE IC50 PK/LDH IC50 […]
# [a] [b] Errors given as formal standard error. n.d.: not determined, PK/LDH: pyruvate kinase and lactate dehydrogenase, Pf: Plasmodium falciparum, Ec: Escherichia coli.
# Figure S7. The HRMS recorded for the samples submitted to the enzyme assay after 3 months of decomposition with the corresponding colour differences. […]
# 2.4 Solvent-Dependent Study
# As in the Section 2.3, stock solutions of compound 1 were prepared in DMSO, ACN and MeOH and stored at RT for 16 days in a box protected from light . Samples were collected during this time and the enzymatic activity was analysed for them as in main text, Table […]
# compound 1 for ACN or MeOH was detectible (Figures S11–12). Similarly, the old samples of compound 1 used for enzyme and cell assays were analysed with HRMS (Figure S13). Additionally, NMR sample in MeOH was prepared and measured over time while stored at RT. As a follow-up experiment, the stability of compound 1 was determined for its 10 mM stock solution in Tris-HCl (pH 7.6) with and without 5% DMSO and Cyrene™ with HRMS (Figure S16–18). […]
# [2] = molecular target: PK/LDH (pyruvate kinase and lactate dehydrogenase); assay: PK/LDH auxiliary enzyme assay; type: biochemical
# Experimental: Firstly, we performed a temperature‐dependent decomposition study of compound 1 at 10 mM concentration in DMSO at room temperature (RT), +4 °C and −20 °C (SI, Section 2.3). […] Besides visual inspection of the colour changes of the test sample (see Table 2), the decomposition was monitored by HRMS and NMR spectroscopy. […] Furthermore, all three samples were tested for their inhibitory activity against PfIspE after the incubation period. […] In the IspE assay, the activity of the target enzyme is coupled to the oxidation of NADH (which can be followed spectrophotometrically at 340 nm) via a cascade of the auxiliary enzymes pyruvate kinase and lactate dehydrogenase (PK/LDH).[10] […] Three samples of compound 1 were tested in PK/LDH assay (Table 2).
# 1.1 General Procedure for Enzymatic Assay
# The cloning, expression and purification of Plasmodium falciparum[1] and Escherichia coli[2,3] and their subsequent assays followed the previously reported procedures .[1] In some specified cases, the tested compound was dissolved in methanol or acetonitrile for the assay .
# Due to the nature of the study, some decomposition samples w ere only tested once and thus, for some formal standard error, […]
# For the final purified compounds, replicates were measured and standard deviation was calculated at least from two replicates. […]
# 2.) Decomposition Study Procedure
# All reagents and solvents were of commercial quality and used without further purification.
# Low resolution mass analytics and purity controls were carried out using an Ultimate 3000-ISQ liquid-chromatography mass spectrometry (LCMS) system (Thermo Fisher Scientific, Dreieich, Germany) consisting of a Dionex UltiMate pump, an autosampler, DAD detector and an ESI quadrupole mass spectrometer. NMR spectra were recorded on a Bruker AV 500 or Ascend 700 (1H, 500 MHz or 700 MHz; 13C, 126 MHz or 175 MHz; 19F, 470 MHz) spectrometer. All spectra were measured in DMSO -d6, methanol-d4, acetone-d6 or acetonitrile-d3 to which reported
structure (smiles),measurement,setting,value
CCn1c(C)cc(-c2csc(Nc3ccccc3C(F)(F)F)n2)c1C [Compound 1],Degradation after 2 months,"[1]; 10 mM in DMSO, +4 °C",79%
same,Percentage of Compound 1 Left After Degradation,"[1]; 10 mM in DMSO, +4 °C, 1 month",48%
same,Percentage of Compound 1 Left After Degradation,"[1]; 10 mM in DMSO, +4 °C, 2 months",21%
same,Percentage of Compound 1 Left After Degradation,"[1]; 10 mM in DMSO, +4 °C, Day 7",96%
same,Degradation after 2 months,"[1]; 10 mM in DMSO, RT",100%
same,decomposition after two weeks (in words),"[1]; 10 mM in DMSO, RT",fully decomposed
same,share of sample decomposed after seven days,"[1]; 10 mM in DMSO, RT",64%
same,Percentage of Compound 1 Left After Degradation,"[1]; 10 mM in DMSO, RT, 1 month",1%
same,Percentage of Compound 1 Left After Degradation,"[1]; 10 mM in DMSO, RT, 2 months",0%
same,Percentage of Compound 1 Left After Degradation,"[1]; 10 mM in DMSO, RT, Day 7",36%
same,Degradation after 2 months,"[1]; 10 mM in DMSO, −20 °C",18%
same,Percentage of Compound 1 Left After Degradation,"[1]; 10 mM in DMSO, −20 °C, 1 month",91%
same,Percentage of Compound 1 Left After Degradation,"[1]; 10 mM in DMSO, −20 °C, 2 months",82%
same,Percentage of Compound 1 Left After Degradation,"[1]; 10 mM in DMSO, −20 °C, Day 7",96%
same,decomposition at −20 °C (in words),"[1]; 10 mM in DMSO, −20 °C, up to two months",decomposition hardly occurs; also recorded: only minimal decomposition
same,"decomposition in Cyrene (HRMS, in words)","[1]; 10 mM stock in Cyrene, RT, after one day",clear decomposition
same,"decomposition in ACN (HRMS, in words)",[1]; stock solution in ACN at RT for 16 days,no decomposition
same,"decomposition in MeOH (HRMS, in words)",[1]; stock solution in MeOH at RT for 16 days,no decomposition
same,IC50,"[2]; 10 mM DMSO stock stored at +4 °C, measured after 3 months",45 ± 6 µM
same,IC50,"[2]; 10 mM DMSO stock stored at RT, measured after 3 months",34 ± 4 µM
same,IC50,"[2]; 10 mM stock in DMSO at RT, 7 days of incubation",48 ± 16 µM
same,IC50,"[2]; 10 mM stock in DMSO at RT, 9 days of incubation",57 ± 22 µM
same,IC50,"[2]; 10 mM stock in DMSO at RT, 12 days of incubation",2 ± 1 µM
same,IC50,"[2]; 10 mM stock in DMSO at RT, 14 days of incubation",50 ± 11 µM
same,IC50,"[2]; 10 mM stock in DMSO at RT, 16 days of incubation",86 ± 17 µM
same,IC50,"[2]; analytical sample, DMSO at RT, 4 days of incubation, dissolved in methanol shortly before the assay",95 ± 21 µM
same,IC50,"[2]; old decomposed sample, control run at the same time as the temperature study",40 ± 4 µM
